Measured values published in the supplement of paper PMC10307832.

Legend:
Assay in all cases: relative viability (nuclei count vs DMSO), 5 days (fraction); higher = more cells survive
DM3189 + Trametinib = compound: C1CN(CCN1)C2=CC=C(C=C2)C3=CN4C(=C(C=N4)C5=CC=NC6=CC=CC=C56)N=C3 [DM3189] + CC(=O)Nc1cccc(-n2c(=O)n(C3CC3)c(=O)c3c(Nc4ccc(I)cc4F)n(C)c(=O)c(C)c32)c1 [Trametinib] (partner 0.02 µM)
How it was run: (§1)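 Relative viability divides the nuclei count in treated wells by that in vehicle wells. Lung cancer cell lines were seeded in 1536-well plates, dosed by pin tool the next day, and fixed and stained after 5 days in one step with final 0.05% Triton X-100, 1% formaldehyde and 1 ug/ml Hoechst. Dosing was a single drug or a fixed anchor-drug dose plus five library-drug doses (not always all listed) in √10 steps, and values are medians of duplicate plates imaged at 4×.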

DM3189 + Palbociclib = compound: C1CN(CCN1)C2=CC=C(C=C2)C3=CN4C(=C(C=N4)C5=CC=NC6=CC=CC=C56)N=C3 [DM3189] + CC(=O)c1c(C)c2cnc(Nc3ccc(N4CCNCC4)cn3)nc2n(C2CCCC2)c1=O [Palbociclib] (partner 0.5 µM)
How it was run: as §1

DM3189 + Tozasertib = compound: C1CN(CCN1)C2=CC=C(C=C2)C3=CN4C(=C(C=N4)C5=CC=NC6=CC=CC=C56)N=C3 [DM3189] + Cc1cc(Nc2cc(N3CCN(C)CC3)nc(Sc3ccc(NC(=O)C4CC4)cc3)n2)n[nH]1 [Tozasertib] (partner 0.1 µM)
How it was run: as §1

DM3189 + Dasatinib = compound: C1CN(CCN1)C2=CC=C(C=C2)C3=CN4C(=C(C=N4)C5=CC=NC6=CC=CC=C56)N=C3 [DM3189] + Cc1nc(Nc2ncc(C(=O)Nc3c(C)cccc3Cl)s2)cc(N2CCN(CCO)CC2)n1 [Dasatinib] (partner 0.075 µM)
How it was run: as §1

DM3189 + AZD7762 = compound: C1CN(CCN1)C2=CC=C(C=C2)C3=CN4C(=C(C=N4)C5=CC=NC6=CC=CC=C56)N=C3 [DM3189] + NC(=O)Nc1cc(-c2cccc(F)c2)sc1C(=O)N[C@H]1CCCNC1 [AZD7762] (partner 0.2 µM)
How it was run: as §1

Cell Line | relative viability (DM3189 + Trametinib; first compound 0.08 µM) | relative viability (DM3189 + Trametinib; first compound 0.253 µM) | relative viability (DM3189 + Trametinib; first compound 0.8 µM) | relative viability (DM3189 + Trametinib; first compound 2.53 µM) | relative viability (DM3189 + Palbociclib; first compound 0.08 µM) | relative viability (DM3189 + Palbociclib; first compound 0.253 µM) | relative viability (DM3189 + Palbociclib; first compound 0.8 µM) | relative viability (DM3189 + Palbociclib; first compound 2.53 µM) | relative viability (DM3189 + Tozasertib; first compound 0.08 µM) | relative viability (DM3189 + Tozasertib; first compound 0.253 µM) | relative viability (DM3189 + Tozasertib; first compound 0.8 µM) | relative viability (DM3189 + Tozasertib; first compound 2.53 µM) | relative viability (DM3189 + Dasatinib; first compound 0.08 µM) | relative viability (DM3189 + Dasatinib; first compound 0.253 µM) | relative viability (DM3189 + Dasatinib; first compound 0.8 µM) | relative viability (DM3189 + Dasatinib; first compound 2.53 µM) | relative viability (DM3189 + AZD7762; first compound 0.08 µM) | relative viability (DM3189 + AZD7762; first compound 0.253 µM) | relative viability (DM3189 + AZD7762; first compound 0.8 µM) | relative viability (DM3189 + AZD7762; first compound 2.53 µM)
NCI-H1355 | 0.408 | 0.429 | 0.33 | 0.421 | 0.357 | 0.416 | 0.349 | 0.387 | 0.547 | 0.55 | 0.513 | 0.438 | 0.788 | 0.706 | 0.474 | 0.633 | 0.687 | 0.813 | 0.585 | 0.648
NCI-H1793 | 0.507 | 0.603 | 0.532 | 0.742 | 0.414 | 0.432 | 0.448 | 0.451 | 0.33 | 0.321 | 0.294 | 0.357 | 0.423 | 0.368 | 0.371 | 0.361 | 0.524 | 0.519 | 0.273 | 0.347
NCI-H23 | 0.409 | 0.352 | 0.324 | 0.442 | 0.468 | 0.43 | 0.496 | 0.485 | 0.291 | 0.389 | 0.296 | 0.376 | 0.878 | 0.713 | 0.716 | 0.749 | 0.231 | 0.237 | 0.128 | 0.265
PC-14 | 0.732 | 0.877 | 0.635 | 0.849 | 0.591 | 0.458 | 0.465 | 0.449 | 0.547 | 0.522 | 0.567 | 0.606 | 0.295 | 0.239 | 0.159 | 0.16 | 0.569 | 0.249 | 0.263 | 0.26
